Laboratory results from patent US20200179392A1, “Idelalisib for Treating Proliferative Vitreoretinopathy and Abnormal Intraocular Neovascularization” (priority 2016, published 2020).

Tested on: RPEM cells
Test: Collagen contraction assay, RPEM cells with vitreous
Type: cell-based, human
Details: idelalisib 5 μM, 48 hours
Description: 3D. The RPEM cells were re-suspended in 1.5 mg/ml of neutralized collagen I at a density of 1×10^6 cells/ml and seeded into wells of a 24-well plate. The solidified gels were overlaid with either DMEM/F12 alone (-), or RV supplemented with idelalisib (5 μM) or its vehicle as indicated. After 48 hours the gel diameter was measured and the gel area were calculated. A photograph of a representative experiment is shown at the bottom of the bar graphs. The mean±standard deviation (SD) of three independent experiments is shown; * denotes […]<0.05 using an unpaired t-test. RPEM cells were re-suspended in 1.5 mg/ml of neutralized collagen […], Fremont, Calif.) (pH 7.2) at ice at a density 1×10^6 cells/ml^24, 54. The mixture was transferred into wells of 24-well plates that had been preincubated overnight with 5 mg/ml bovine serum albumin/PBS. After the collagen had polymerized at 37° C. for 90 minutes, 0.5 ml DMEM/F12 or RV (1:2 dilution in DMEM/F12) with or without idelalisib (5 μM) was added. On day 3, the gel diameter was measured and the gel area was calculated using a formula 3.14×r^2, where r is the radius of the gel. At least three independent experiments were performed^24, 55.

CC[C@H](Nc1ncnc2[nH]cnc12)c1nc2cccc(F)c2c(=O)n1-c1ccccc1 [idelalisib]
effect on vitreous-induced collagen contraction of RPEM cells: completely blocked
